In patent publication US12329149B2, “Apparatus and methods for irradiating organ perfusates” (University Health Network, priority 2017, dated 2025):

How the values were obtained:
HCV = experiment: EVLP of HCV+ human donor lungs with light therapy, viral load by RealTime PCR
Method: (§1) Human Lung Studies: effect of EVLP and light therapies into HCV titers: In order to evaluate the effect of EVLP itself and also as a platform for light-based therapies against HCV titers in the lung tissue and perfusate solution, 9 rejected human lungs from NAT+ HCV donors. Donor lungs were recovered using standard protocols and flushed with cold Low-Potassium Dextran (LPD) solution and preserved at 4° C. as routine clinical practice. Following the pre-EVLP flush, the lungs were placed in 2 independent EVLP circuits for 9 hours. One lung was the control group (standard EVLP protocol, (n=9), whereas the other lung was randomly subjected to different treatment conditions (n=3, each) (FIG. 13A): (1) Intense lung wash (replacement of perfusate solution and circuit after 3 h of EVLP); (2) Ultra Violet C (UVC) light (260 nm, 4 W) applied to EVLP perfusate; (3) Photodynamic Therapy (PDT), using Methylene Blue (MB) diluted in the perfusion solution (1 umol/L) associated with red light irradiation (630 nm, 20 mW/cm^2). The advantage of such design is that both control and treated lungs come from the same donor (same virus load as baseline). Tissue biopsies were collected from lower, and upper lobes of the lungs at baseline and every 3 h during perfusion and perfusate samples were collected hourly. All samples were assessed for viral load quantification using RealTime PCR assay. The results were normalized for percentage of viral load decrease. To translate the application of light therapies to an EVLP system, a specific device suitable to be inserted inline in the EVLP circuit where different light wavelengths could be applied to treat the perfusion solution.

[1] = Ex vivo lung function during 9 hours of EVLP of human donor lungs; details: PDT (MB 1 umol/L + red light) applied to circuit, 9 hours EVLP
Method: as §1, with “The results were normalized for percentage of viral load decrease. To translate the application of light therapies to an EVLP system, a specific device suitable to be inserted inline in the EVLP circuit where different light wavelengths could be applied to treat the perfusion solution.” left out

[2] = Pre-clinical large animal lung transplant safety model (EVLP 6 h, left lung transplant, 4 h reperfusion); type: in vivo, Yorkshire male domestic pigs; details: PDT MB 1 umol/L + red light vs control and UVC
Method: In order to translate such approach to the clinical EVLP setting, the safety of applying UVC and PDT during EVLP was assessed using a pre-clinical large animal transplant model (FIG. 15D).
In this model, Yorkshire male domestic pigs (30-35 kg) were used, under anesthesia and mechanic ventilation. After lung withdrawal, lungs were preserved for 2 hours at 4° C., followed by EVLP for 6 hours. During EVLP, pig lungs were randomized for three groups (n=4, each): (1) Control (standard EVLP technique); (2) Ultra Violet C; (3) Photodynamic Therapy (PDT), using Methylene Blue (MB) diluted in the perfusion solution (1 umol/L) associated with red light irradiation. During EVLP, lung physiology was assessed (pulmonary vascular resistance, pulmonary artery pressure, left atrium (venous) pressure, peak airway pressure, plateau pressure, dynamic compliance, static compliance and gas exchange function-PO2); There was no difference in ex vivo lung function during 6 hours amongst the groups. After EVLP, the left lung was transplanted followed by 4 hours of reperfusion. Post-transplant blood gas samples were collected of the transplanted graft upper and lower pulmonary veins and the average of the partial pressure of arterial oxygen (PaO2)/fraction of inspired oxygen (FiO2) was calculated.

HCV JFH-1 strain = experiment: Mini-EVLP circuit spiked with HCV JFH-1, infectivity loss in Huh 7.5.1 hepatocyte culture
[3] = test system: Staphylococcus aureus, Stenotrophomonas maltophilia, and Pseudomonas aeruginosa; details: antibiotic 333 mg/L, LB Agar plates, UVC group 0
Method: Methods: A mixture of low-potassium-dextran lung perfusion solution and Lysogeny Broth (LB) media was spiked with 1,0×10^5 CFU/mL of Staphylococcus aureus, Stenotrophomonas maltophilia, and Pseudomonas aeruginosa. A mini EVLP and UVC irradiator was used (FIG. 7). After priming, the circuits were divided into three groups (n=4, each) and evaluated for 180 minutes: 1) Control (no treatment); 2) UVC (236 nm, 9 J/cm^2) and 3) Antibiotic (Imipenem/Cilastatin, 333 mg/L). Samples were taken at different timepoints and analysed, using LB Agar culture plates and bacterial DNA qPCR assay.

Compound	decrease of HCV titers in human donor lungs (HCV; PDT using MB as photosensitizer, summary statement)	HCV titers in lung tissue, % reduction (HCV; PDT: methylene blue 1 umol/L + red light 630 nm, 20 mW/cm^2, 9 h EVLP, lung tissue, control 75.46%)	perfusate HCV titres (% reduction from baseline) (HCV; PDT: methylene blue 1 umol/L + red light 630 nm/20 mW/cm^2, 9 h EVLP, perfusate, control 69.49%)	ex vivo lung function during EVLP (delta P/F ratio, peak airway pressure, dynamic compliance) vs control lung [1]	post-transplant PaO2/FiO2 after 4 h of reperfusion, among the groups ([2]; pig left lung transplant)	ex vivo lung function during 6 hours EVLP amongst the groups ([2]; pig lungs)	perfusion time after which no infectivity was observed (HCV JFH-1 strain; PDT group, red light 630 nm, 20 mW/cm^2, JFH-1 1.5×10^6 copies/mL, 37° C.)	effect on HCV infectivity with ambient (room) light activation compared with red light (HCV JFH-1 strain; regular room light instead of red light)	bacterial growth after 180 minutes of treatment [3]
CN(C)c1ccc2nc3ccc(=[N+](C)C)cc-3sc2c1 [Methylene blue]	98%	90.96%	97.87%	no significant difference	no significant difference	no difference	15 min	weaker than with red light	
Imipenem/Cilastatin									15±2.3 colonies/plate
